{"source": "patent US20020103219A1", "about": "“Stable viscous liquid formulations of amlexanox for the prevention and treatment of mucosal diseases and disorders” (priority 2000, published 2002)", "key": {"[1]": {"tested_on": "acetylcholine-induced bronchoconstriction", "settings": "text b108; cited from earlier work"}, "[2]": {"tested_on": "histamine-induced bronchoconstriction", "settings": "cited from earlier work"}, "[3]": {"tested_on": "airway smooth muscle", "settings": "mechanism of action; cited from earlier work"}, "[4]": {"tested_on": "mast cells", "settings": "cited from earlier work"}, "[5]": {"tested_on": "passive cutaneous anaphylaxis mediated by IgE", "settings": "rat, cited from earlier work"}, "[6]": {"tested_on": "tuberculin reaction", "settings": "intravenous, cited from earlier work"}, "[7]": {"tested_on": "allergic reactions", "settings": "variety of in vivo models; cited from earlier work"}, "[8]": {"tested_on": "IgE-mediated constriction", "settings": "actively sensitized guinea pigs, cited from earlier work"}, "[9]": {"tested_on": "cyclo-oxygenase products", "settings": "whole tissue studies; cited from earlier work"}, "[10]": {"tested_on": "leukotriene D4-induced bronchoconstriction", "settings": "guinea pigs, intravenous doses of 5 and 20 mg/kg; cited from earlier work"}, "[11]": {"tested_on": "cyclic nucleotide phosphodiesterase", "settings": "cited from earlier work"}, "[12]": {"tested_on": "IgE-mediated bronchoconstriction", "settings": "rats, cited from earlier work"}, "[13]": {"tested_on": "leukotrienes", "settings": "in vitro; cited from earlier work"}, "[14]": {"tested_on": "bronchoconstriction", "settings": "guinea pigs passively sensitized with rabbit IgG, intravenously; cited from earlier work"}, "[15]": {"tested_on": "2,4-dinitro-1 -fluorobenzene-induced contact sensitivity", "settings": "intravenous, cited from earlier work"}, "[16]": {"test": "water solubility of amlexanox", "assay_type": "physicochemical", "text": "(§1) The molecule contains a free carboxylate group, and the water solubility of amlexanox can be increased by raising the pH of the dissolution solution. However, caution is necessary using this approach as degradation of amlexanox may take place at high pH. […] Thus the formulation of a viscous, mucoadhesive solution of amlexanox which is also stable represented a major challenge."}, "[17]": {"test": "stability of amlexanox in aqueous solution", "assay_type": "physicochemical", "settings": "under certain conditions, solution pH greater than about 8.0", "text": "as §1"}, "[18]": {"tested_on": "Arthus reaction", "settings": "cited from earlier work"}, "[19]": {"tested_on": "platelet activating factor-induced bronchoconstriction", "settings": "guinea pigs, intravenous doses of 5 and 20 mg/kg; cited from earlier work"}, "[20]": {"tested_on": "inflammation", "settings": "in vivo; cited from earlier work"}, "[21]": {"tested_on": "IgG1-mediated bronchoconstriction", "settings": "actively sensitized guinea pigs, cited from earlier work"}, "[22]": {"tested_on": "leukotriene D4 (LTD4) generation", "settings": "mechanism of action; cited from earlier work"}}, "note": "Read-outs that look alike come from different tables or passages of the source.", "data": [{"smiles": "CC(C)c1ccc2oc3nc(N)c(C(=O)O)cc3c(=O)c2c1", "note": "[Amlexanox, 2-amino-7-(1 methylethyl)-5-oxo-5H[1]benzopyrano[2,3-b]pyridine-3-carboxylic acid]", "values": [{"measurement": "effect on acetylcholine-induced bronchoconstriction", "setting": "[1]", "result": "not active"}, {"measurement": "bronchoconstriction induced by histamine", "setting": "[2]; Table 1", "result": "Has no effect on bronchoconstriction induced by histamine or"}, {"measurement": "effect on histamine-induced bronchoconstriction", "setting": "[2]; text b108", "result": "slightly suppressed"}, {"measurement": "contractile response of airway smooth muscle to LTD4", "setting": "[3]", "result": "Antagonism"}, {"measurement": "release of inflammatory mediators from mast cells", "setting": "[4]; antigen-antibody induced release, ionophore induced release", "result": "Potent inhibitor of the release of inflammatory mediators from mast cells"}, {"measurement": "immunologically-stimulated release of histamine from mast cells", "setting": "[4]; mechanism of action, in vivo and in vitro studies", "result": "Inhibition"}, {"measurement": "ED50, inhibition of passive cutaneous anaphylaxis", "setting": "[5]; intravenous", "result": 0.032, "unit": "mg/kg"}, {"measurement": "ED50, inhibition of passive cutaneous anaphylaxis", "setting": "[5]; oral", "result": 0.73, "unit": "mg/kg"}, {"measurement": "inhibition of the tuberculin reaction", "setting": "[6]; 5 mg/kg", "result": "not"}, {"measurement": "inhibition of the tuberculin reaction", "setting": "[6]; 20 mg/kg", "result": "significant inhibition"}, {"measurement": "anti-allergic activity", "setting": "[7]", "result": "Potent ant-allergic agent demonstrated in a variety of in vivo models"}, {"measurement": "inhibition of IgE-mediated constriction", "setting": "[8]; 20 mg/kg, another study", "result": "significant inhibition"}, {"measurement": "ED50, inhibition of IgE-mediated constriction", "setting": "[8]; one study", "result": 14.5, "unit": "mg/kg"}, {"measurement": "generation of cyclo-oxygenase products", "setting": "[9]", "result": "Does not inhibit generation of cyclo-oxygenase products in whole"}, {"measurement": "suppression of bronchoconstriction induced by leukotriene D4", "setting": "[10]", "result": "dose-related suppression"}, {"measurement": "inhibition of cyclic nucleotide phosphodiesterase", "setting": "[11]", "result": "Potent inhibitor of cyclic nucleotide phosphodiesterase"}, {"measurement": "suppression of IgE-mediated bronchoconstriction", "setting": "[12]; intravenous dose of 1 mg/kg", "result": "significantly suppressed"}, {"measurement": "suppression of IgE-mediated bronchoconstriction", "setting": "[12]; oral dose of 10 mg/kg", "result": "significantly suppressed"}, {"measurement": "formation of leukotrienes", "setting": "[13]", "result": "Inhibits formation of leukotrienes, in vitro"}, {"measurement": "ED50, inhibition of bronchoconstriction", "setting": "[14]", "result": 9, "unit": "mg/kg"}, {"measurement": "inhibition of contact sensitivity", "setting": "[15]; 5 mg/kg", "result": "not"}, {"measurement": "inhibition of contact sensitivity", "setting": "[15]; 20 mg/kg", "result": "significant inhibition"}, {"measurement": "water solubility", "setting": "[16]", "result": "poorly water soluble"}, {"measurement": "degradation in aqueous solution", "setting": "[17]", "result": "degrade slowly"}, {"measurement": "inhibition of the Arthus reaction", "setting": "[18]; intravenous doses of 5 and 20 mg/kg given immediately after antigen challenge", "result": "moderate activity"}, {"measurement": "inhibition of the Arthus reaction", "setting": "[18]; oral doses of 50 and 10 mg/kg given 1 or 3 hours after antigen challenge", "result": "moderate activity"}, {"measurement": "suppression of bronchoconstriction induced by platelet activating factor", "setting": "[19]", "result": "dose-related suppression"}, {"measurement": "anti-inflammatory activity", "setting": "[20]", "result": "Weak anti-inflammatory activity in vivo"}, {"measurement": "ED50, IgG1-mediated bronchoconstriction", "setting": "[21]; intravenous", "result": 8.2, "unit": "mg/kg"}, {"measurement": "ED50, IgG1-mediated bronchoconstriction", "setting": "[21]; oral", "result": 160, "unit": "mg/kg"}, {"measurement": "leukotriene D4 (LTD4) generation", "setting": "[22]", "result": "Inhibition"}]}]}
